Laboratory results taken from ChEMBL document CHEMBL3414448, “Advances in the discovery of novel antimicrobials targeting the assembly of bacterial cell division protein FtsZ” (Eur J Med Chem, 2015).
Converted amounts (≈) assume the structure as drawn.

Assays:
Bacillus subtilis [1] = test: Antimicrobial activity against Bacillus subtilis; type: functional
[2] = target: T1, Cell division protein FtsZ (Bacillus subtilis (strain 168), UniProt P17865); test: Binding affinity to Bacillus subtilis FtsZ
T1 sequence (P17865 whole entry): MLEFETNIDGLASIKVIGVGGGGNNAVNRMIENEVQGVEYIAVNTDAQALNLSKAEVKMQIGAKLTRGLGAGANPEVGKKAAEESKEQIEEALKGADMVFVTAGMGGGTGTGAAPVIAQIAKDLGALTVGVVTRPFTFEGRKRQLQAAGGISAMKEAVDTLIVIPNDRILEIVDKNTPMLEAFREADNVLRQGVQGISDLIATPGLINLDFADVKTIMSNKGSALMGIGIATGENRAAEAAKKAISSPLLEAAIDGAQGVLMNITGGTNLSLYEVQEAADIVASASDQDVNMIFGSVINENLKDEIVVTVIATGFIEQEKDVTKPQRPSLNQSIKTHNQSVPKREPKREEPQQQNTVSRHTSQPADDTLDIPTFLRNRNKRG

HeLa = test: Cytotoxicity against human HeLa cells; type: cell-based
[3] = target: T2, Cell division protein FtsZ (Escherichia coli K-12, UniProt P0A9A6); test: Inhibition of Escherichia coli FtsZ
T2 sequence (P0A9A6 whole entry): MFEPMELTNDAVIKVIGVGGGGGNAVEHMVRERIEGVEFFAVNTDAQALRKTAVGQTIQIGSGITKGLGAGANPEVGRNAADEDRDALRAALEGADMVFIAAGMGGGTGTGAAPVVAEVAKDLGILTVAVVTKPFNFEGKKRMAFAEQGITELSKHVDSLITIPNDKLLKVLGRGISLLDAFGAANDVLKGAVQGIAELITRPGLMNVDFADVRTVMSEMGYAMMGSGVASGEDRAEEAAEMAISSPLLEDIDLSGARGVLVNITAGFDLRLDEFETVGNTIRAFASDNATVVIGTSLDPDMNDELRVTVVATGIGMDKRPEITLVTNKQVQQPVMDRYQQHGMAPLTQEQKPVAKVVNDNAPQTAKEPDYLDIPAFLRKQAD

Escherichia coli [4] = test: Antimicrobial activity against Escherichia coli; type: functional
Staphylococcus aureus [5] = test: Antimicrobial activity against Staphylococcus aureus; type: functional
Pseudomonas fluorescens = test: Antimicrobial activity against Pseudomonas fluorescens; type: functional
[6] = Half life in staphylococcal growth media
[7] = Half life in 100% filtered mouse serum; type: ADME
Staphylococcus = test: Antimicrobial activity against Staphylococcus; type: functional
[8] = Inhibition of FtsZ (unknown origin) assessed as reduction in enzyme assembly
[9] = Inhibition of FtsZ (unknown origin) assessed as reduction in enzyme GTPase activity
[10] = target: T2, Cell division protein FtsZ; test: Inhibition of Escherichia coli FtsZ GTPase activity
[11] = target: T2, Cell division protein FtsZ; test: Inhibition of Escherichia coli FtsZ polymerization
Bacillus subtilis [12] = test: Antimicrobial activity against Bacillus subtilis relative to control; type: functional
Escherichia coli [13] = test: Antimicrobial activity against Escherichia coli relative to control; type: functional
Staphylococcus aureus [14] = test: Antimicrobial activity against methicillin-resistant Staphylococcus aureus; type: functional
[15] = target: T2, Cell division protein FtsZ; test: Binding affinity to Escherichia coli FtsZ by fluorescence anisotrophy
[16] = tested on: Mycobacterium tuberculosis; test: Antimicrobial activity against Mycobacterium tuberculosis; type: functional
[17] = target: T3, Cell division protein FtsZ (Mycobacterium tuberculosis, UniProt P9WN95); test: Binding affinity to Mycobacterium tuberculosis FtsZ
T3 sequence (P9WN95 whole entry): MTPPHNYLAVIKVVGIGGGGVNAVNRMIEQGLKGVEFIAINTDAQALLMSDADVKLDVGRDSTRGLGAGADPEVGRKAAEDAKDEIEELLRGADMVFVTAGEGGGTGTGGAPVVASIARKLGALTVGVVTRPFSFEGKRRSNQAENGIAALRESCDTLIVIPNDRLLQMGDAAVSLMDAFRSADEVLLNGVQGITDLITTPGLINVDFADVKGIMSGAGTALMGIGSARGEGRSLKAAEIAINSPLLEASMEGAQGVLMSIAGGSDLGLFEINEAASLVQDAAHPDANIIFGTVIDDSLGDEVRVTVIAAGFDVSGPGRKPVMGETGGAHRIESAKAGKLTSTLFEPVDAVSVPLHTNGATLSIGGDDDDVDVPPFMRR

Bacillus subtilis [18] = test: Antimicrobial activity against Bacillus subtilis 168; type: functional
Enterococcus faecalis = test: Antimicrobial activity against Enterococcus faecalis; type: functional
Enterococcus faecium = test: Antimicrobial activity against Enterococcus faecium; type: functional

O=C1NC(=S)S/C1=C/c1ccc(-c2cccc(C(F)(F)F)c2)o1 showed a GI50 (Bacillus subtilis [1]) of 2 µM, a Kd [2] of 1.5 µM and an IC50 (HeLa) of 18.1 µM.
With CN(C)CCNc1nc(/C=C/c2ccc(Cl)cc2)nc2cc3ccccc3cc12 the IC50 [3] was 12 µM.
COc1ccc(/N=C/c2ccc(OC(C)=O)c(OC)c2[N+](=O)[O-])cc1 gave an MIC (Bacillus subtilis [1]) of 1.56 µg/mL (≈ 4.53 µM), an MIC (Escherichia coli [4]) of 1.56 µg/mL (≈ 4.53 µM) and an MIC (Staphylococcus aureus [5]) of 1.56 µg/mL (≈ 4.53 µM). It also gave an MIC (Pseudomonas fluorescens) of 1.56 µg/mL (≈ 4.53 µM).
COc1c(OC(C)=O)ccc(/C=N/c2c(C(C)C)cccc2C(C)C)c1[N+](=O)[O-] showed an MIC (Bacillus subtilis [1]) of 6.25 µg/mL (≈ 15.7 µM), an MIC (Escherichia coli [4]) of 6.25 µg/mL (≈ 15.7 µM) and an MIC (Staphylococcus aureus [5]) of 6.25 µg/mL (≈ 15.7 µM). For the same compound, the MIC (Pseudomonas fluorescens) was 6.25 µg/mL (≈ 15.7 µM).
For CN1CCC(C(=O)NC(=O)c2c(F)ccc(OCc3nc4cc(Cl)cnc4s3)c2F)CC1, the half-life [6] was 8.2 h and the half-life [7] was 3.4 min.
With NC(=O)c1c(F)ccc(OCc2nc3cc(Cl)cnc3s2)c1F the MIC (Staphylococcus) was 0.5 µg/mL (≈ 1.41 µM).
Work on COc1ccc2cc3[n+](cc2c1OC)CCc1cc2c(cc1-3)OCO2 [BERBERINE] yielded an IC50 [8] of 10 µM and an IC50 [9] of 16 µM.
For O=C/C=C/c1ccccc1 [CINNAMALDEHYDE], the IC50 [10] was 5.81 µM, the IC50 [11] was 6.86 µM and the MIC (Bacillus subtilis [12]) was 500 µg/mL (≈ 3780 µM). It also gave an MIC (Escherichia coli [13]) of 1000 µg/mL (≈ 7570 µM), an MIC (Staphylococcus aureus [14]) of 0.25 µg/mL (≈ 1.89 µM) and an MIC (Bacillus subtilis [1]) of 0.5 µg/mL (≈ 3.78 µM). It also gave an MIC (Escherichia coli [4]) of 1 µg/mL (≈ 7.57 µM).
Work on N=C(N)c1ccc(-c2cc3ccc(C(=N)N)cc3[nH]2)cc1 [DAPI] yielded a Kd [15] of 16.6 µM.
Work on O=C1C[C@@H](c2ccccc2)Oc2c(Cc3ccccc3O)c(O)c(Cc3ccccc3O)c(O)c21 [DICHAMANETIN] yielded an IC50 [10] of 12.5 µM, an MIC (Bacillus subtilis [1]) of 5.01 µg/mL (≈ 10.7 µM) and an MIC (Staphylococcus aureus [5]) of 0.8 µg/mL (≈ 1.71 µM).
For CC(C)c1c(O)ccc2c1CC[C@H]1C(C)(C)CCC[C@]21C [TOTAROL], the MIC (Escherichia coli [4]) was greater than 400 µg/mL, the MIC (Staphylococcus aureus [5]) was 1.5 µg/mL (≈ 5.24 µM) and the MIC [16] was 16 µg/mL (≈ 55.9 µM). The Kd [17] was 11 µM, the IC50 [9] was 40.8 µM and the MIC (Bacillus subtilis [18]) was 0.6 µg/mL (≈ 2.09 µM).
COC(=O)CC1Cc2cc3cc(OC)c(-c4c(OC)cc5cc6c(c(O)c5c4O)C(=O)OC(CC(=O)OC)C6)c(O)c3c(O)c2C(=O)O1 (centres undefined) [VIRIDITOXIN] showed an IC50 [10] of 10.6 µM, an IC50 [11] of 12.4 µM and an MIC (Staphylococcus aureus [5]) of 4 µg/mL (≈ 6.04 µM). It also gave an MIC (Enterococcus faecalis) of 2 µg/mL (≈ 3.02 µM) and an MIC (Enterococcus faecium) of 2 µg/mL (≈ 3.02 µM).
